ChEMBL document CHEMBL4602605, “Fluoroquinolones structural and medicinal developments (2013-2018): Where are we now?” (Bioorg Med Chem, 2019)
Values after ≈ are worked out from the molar mass of the structure shown.

The compounds below were run on Mycobacterium tuberculosis (assay: Antimicrobial activity against rifampin and isoniazid resistant Mycobacterium tuberculosis Beijing harboring rpoB Ser 531-Leu 315 and katC Ser-Thr mutant incubated for 10 days by microbroth dilution method).
Format: functional

Q: With `CCOc1cccc2cc(-c3cc4c(cc3F)c(=O)c(C(=O)O)cn4CC)c(=O)oc12` as the compound, how does the MIC read?
A: 1.5 µg/mL (≈ 3.54 µM)

Q: How did the MIC turn out when `CCn1cc(C(=O)O)c(=O)c2cc(F)c(-c3cc4cc(C(C)(C)C)cc(C(C)(C)C)c4oc3=O)cc21` was run?
A: 3.1 µg/mL (≈ 6.31 µM)

Q: With `CCn1cc(C(=O)O)c(=O)c2cc(F)c(-c3cc4cc(Br)ccc4oc3=O)cc21` as the compound, how does the MIC read?
A: 6.2 µg/mL (≈ 13.5 µM)
